Assay results: patent US20140315975A1, “APOPTOSIS-INDUCING AGENT” (NITTO DENKO CORPORATION, priority 2011, published 2014)
Residues, ends and D or L forms follow the SMILES beside them. *: point of attachment. Cbz = O=C(OCc1ccccc1)*

Legend:
Type in all cases: cell-based
[1] = tested on: LC3; assay: Autophagy induction by LC3 western blotting; conditions: M7609 cells, western blot with anti-LC3 antibody (FIG. 8)
Experimental: Induction of autophagy in GST-π knockdown cells was further analyzed by a western blot analysis of LC3. GST-π knockdown cells obtained by the procedure of Example 1 (2) were plated on a cover slip placed in a 35 mm plastic tissue culture dish so as to give 1×10^5 cells/2 mL. After incubating for a predetermined time, a cell extract was collected and subjected to a western blot analysis. A reaction with a transfer membrane was carried out at 4° C. for 16 hours using anti-LC3B antibody (SIGMA) as a primary antibody. Detection of LC3 molecules was carried out using a chemoluminescent reagent after a reaction with HRP-labeled secondary antibody. Whether or not autophagy was induced was evaluated by a shift of LC3 from type I (18 kDa) to type II (16 kDa).

[2] = tested on: GST-π; assay: Western blot analysis of GST-π knockdown; conditions: M7609 cells, siRNA transfection, western blot (FIG. 1a)
Experimental: On the day before transfection, M7609 cells were plated on a 100 mm plastic tissue culture dish using 10% FBS-containing RPMI-1640 medium containing no antibiotic so as to give 1×10^6 cells/10 mL. 600 pmol of GST-π siRNA (SEQ ID No: 1: […], siRNA ID#2385, Ambion) was added to 1 mL of Opti-MEM I Reduced Serum Medium (GIBCO) and mixed gently. Subsequently, 35 μL of Lipofectamine RNAiMAX (Invitrogen) was diluted in 1 mL of Opti-MEM I Reduced Serum Medium and mixed gently. The diluted GST-π siRNA and the diluted Lipofectamine RNAiMAX were combined and gently mixed, and then incubated at room temperature for 10 min. During this time, the medium was replaced with 10 mL of Opti-MEM I Reduced Serum Medium. After the 10 min. incubation, the complex between GST-π siRNA and Lipofectamine RNAiMAX was added to the cells and incubated at 37° C. under an atmosphere containing 5% CO2. After 5 hours incubation, it was replaced with 10 mL of 10% FBS-containing RPMI-1640 medium containing no antibiotic. […] On the 1st, 2nd, 3rd, and 4th days after transfection with GST-π siRNA, the number of cells was counted, and knockdown of GST-π was examined. Knockdown of GST-π was analyzed by a western blot method as described below.
Western blot analysis of GST-π knockdown was carried out using cells harvested at above-mentioned each point of time after transfection with GST-π siRNA. […] The cell extract thus obtained was subjected to quantitative protein analysis using a Micro BCA Protein Assay Kit (Thermo SCIENTIFIC) (GST-π siRNA transfectant: 4.35 μg/μL, Scramble siRNA transfectant: 4.56 μg/μL). […] A reaction with a chemiluminescent substrate was then carried out at room temperature for 1 min., and then this chemiluminescence was detected using an X-ray film. Washing between operations was carried out three times by shaking for 5 min using PBS-T. Furthermore, after transfection with siRNA, plating on a 60 mm plastic tissue culture dish was carried out to give 1.0×10^5 cells/5 mL, and the total cell count in the dish was measured using a hemocytometer up to the 4th day.

[3] = tested on: M7609 cells; assay: Autophagy-positive cells in GST-π knockdown cells with autophagy inhibitor (LC3 immunofluorescence); conditions: GST-π KD M7609 cells + 3-MA (FIG. 16)
Experimental: (§1) Transfection of GST-π siRNA was carried out in accordance with the procedure of Example 1 (2), the medium was then replaced with an antibiotic-free medium, and incubation was carried out for 3 hours. Cells were plated on a cover slip placed in a 35 mm plastic tissue culture dish, the autophagy inhibitor 3-methyl adenine (3-MA, SIGMA) was added so as to give 1 or 5 mM, and following this culturing was carried out for a predetermined time.
The cells cultured in (1) were subjected to immunofluorescence staining using anti-LC3 antibody in the same way as for Example 3 (1).

[4] = tested on: M7609 cells; assay: TUNEL staining of GST-π knockdown cells with autophagy inhibitor; conditions: GST-π siRNA + 1 mM or 5 mM 3-MA
Experimental: as §1
The cells cultured in (1) were subjected to TUNEL staining in the same way as for Example 3 (4).

[5] = tested on: p-EGFR (Tyr1068); assay: Effect of proteasome inhibitor on p-EGFR expression under GST-π knockdown; conditions: GST-π KD cells, 5 μM MG132 for 2 hours (FIG. 12)
Experimental: Culturing of M7609 cells and transfection with GST-π siRNA were carried out in accordance with the procedures of Example 1 (1) and (2). On the 2nd day after transfection with GST-π siRNA, the cells were cultured in serum-free medium for 16 hours. After treating with 5 μM MG132 for 2 hours, a cell extract was collected. As a control for the MG132 treatment, treatment with 0.05% DMSO was carried out in the same manner. The cell extract thus obtained was subjected to quantitative protein analysis using a Micro BCA Protein Assay Kit (Scramble siRNA-DMSO treated group: 11.98 μg/μL, Scramble siRNA-MG132 treated group: 12.29 μg/μL, GST-π siRNA-DMSO treated group: 8.91 μg/μL, GST-π siRNA-MG132 treated group: 9.24 μg/μL). After 80 μg of the cell extract was subjected to SDS-PAGE, a western blot analysis was carried out using anti-p-EGFR (Tyr1068) antibody and anti-EGFR antibody.

[6] = tested on: p-Raf-1 (Ser338); assay: Effect of proteasome inhibitor on Raf-1 expression under GST-π knockdown; conditions: 5 μM MG132 for 4 hours versus DMSO (FIG. 4)
Experimental: Culturing of M7609 cells and transfection with GST-π siRNA were carried out in accordance with the procedures of Example 1 (1) and (2). On the 2nd day after GST-π siRNA transfection culturing was carried out for 16 hours in a serum-free medium. After treating with 5 μM MG132 for 4 hours, a cell extract was collected. As a control for the MG132 treatment, treatment with 0.05% DMSO was carried out in the same manner. The cell extract thus obtained was subjected to quantitative protein analysis using a Micro BCA Protein Assay Kit (Scramble siRNA-DMSO treated group: 3.36 μg/μL, Scramble siRNA-MG132 treated group: 3.16 μg/μL, GST-π siRNA-DMSO treated group: 3.12 μg/μL, GST-π siRNA-MG132 treated group: 3.16 μg/μL). 20 μg of the cell extract was subjected to SDS-PAGE, and then western blot analysis was carried out in the same way as for Example 1 (3) using an anti-p-Raf-1 (Ser338) antibody and an anti-Raf-1 antibody.

For “Scramble siRNA: control Scramble siRNA (SEQ ID No: 2: CGAUUCGCUAGACCGGCUUCAUUGCAG, Hokkaido System Science Co., Ltd.) (chemistry not given here) [reference compound]”, the “expression of type I and type II LC3” value [1] was “low” and the “expression of GST-π” value [2] was “not suppressed”.

In the case of `Cn1cnc(N)c2ncnc1-2` [3-MA, 3-methyladenine], the “autophagy increased by knockdown of GST-π (proportion of autophagy-positive cells)” value [3] is reported as “suppressed”, the “apoptosis-positive cells (TUNEL stained images)” value ([4]; 2nd to 4th day (FIG. 17 versus FIG. 9)) is reported as “increased markedly” and the “induction of apoptosis (percentage apoptosis over time)” value ([4]; dose-dependent (FIG. 18)) is reported as “further induced”.

With `CC(C)C[C@@H](C=O)NC(=O)[C@H](CC(C)C)NC(=O)[C@H](CC(C)C)NC(=O)OCc1ccccc1` [MG132] (Cbz-Leu-Leu-Leu-aldehyde) the “expression level of p-EGFR” value [5] was “recovered”, the “abundance of phosphorylated Raf protein (p-Raf-1 (S338))” value ([6]; GST-π siRNA transfectant) was “increased” and the “abundance of phosphorylated Raf protein (p-Raf-1 (S338))” value ([6]; Scramble siRNA transfectant) was “no change”.
